Laboratory results as given in patent US20150045291A1, “LIPOPEPTIDE CONJUGATES COMPRISING SPHINGOLIPID AND HIV GP41 DERIVED PEPTIDES” (priority 2012, published 2015).
Like-named read-outs stand apart in the source and are kept apart here. Starred links: 1 amine or outer side, 2 acyl side, 3 side chain; linkers in the order of their positions; H or OH if unused. Residues, ends and D or L forms follow the SMILES beside them. Groups on a side chain read outwards from the residue. *: point of attachment. Cholesteryloxycarbonyl = CC(C)CCC[C@@H](C)[C@H]1CC[C@H]2[C@@H]3CC=C4C[C@@H](OC(=O)*)CC[C@]4(C)[C@H]3CC[C@]12C; X1 = Cc1c(C)c2c(c(C)c1OC(=O)CCC(=O)*)CCC(C)(CCCC(C)CCCC(C)CCCC(C)C)O2; Sphinganine = CCCCCCCCCCCCCCC[C@@H](O)[C@H](CO)N*; CO = O=C([*:1])[*:2]

Legend:
[1] = system: fully infectious HIV-1 HXB2; conditions: for IC90: read-out: IC90 (nM), […]
[2] = Secondary structure determination by circular dichroism; format: physicochemical; conditions: percentage of α-helical structure, CD, 10 μM peptide in HEPES buffer 5 mM pH 7.4, 25° C.
Procedure: Secondary structure determination. Circular Dichroism (CD) measurements were performed by using an AppliedPhoto physics spectropolarimeter. The spectra were scanned using a thermostatic quartz cuvette with a path length of 1 mm. Wavelength scans were performed at 25° C.; the average recording time was 15 sec, in 1-nm steps, in the wavelength range of 190-260 nm. Each peptide concentration was 10 μM in HEPES buffer (5 mM, pH 7.4).
Helicity (%): The percentage of α-helical structure was determined as described in the section of Materials and Methods.

[3] = Hydrophobicity by RP-HPLC; format: physicochemical; conditions: RP-HPLC retention time, analytical C2 column, CH3CN/H2O gradient
Procedure: Peptide synthesis, lipid moiety conjugation, and fluorescent labeling. Peptides were synthesized on Rink Amide MBHA resin by using the F-moc strategy. Several peptides contain a lysine residue at their C-terminus with an MTT side-chain protecting group (Nova-biochem AG, Switzerland) that requires a special deprotection step under mild acidic conditions (2×1 min of 5% trifluoroacetic acid (TFA) in dichloromethane (DCM) and 30 min of 1% TFA in DCM). This enables the conjugation of a lipid moiety or a fluorescent probe to the C-terminus. The chemical synthesis schemes of the following compounds 1-5 are described in FIG. 6. Conjugation of hexadecanoic (palmitic) acid (C16) or α-Tocopherol succinate (Sigma Chemical Co., Israel) to the N-terminus of selected peptides (compound 2 and compound 4, respectively) was performed using standard F-moc chemistry. Conjugation of cholesterol to the N-terminus of a peptide (compound 3) was performed by adding 10 equivalents of cholesteryl chloroformate (Alfa Aesar, USA) dissolved in DCM, together with 3 equivalents of triethyl amine to the peptides' resin. Conjugation of D-erythro-Dihydrosphingosine (D-erythro sphinganine), (Matreya, LCC, USA) to the N- or C-terminus of a peptide (compound 1) was performed as followed: first, 10 equivalents of N,N′-Disuccinimidyl carbonate (DSC) (Chem-Impex Internatinal, USA) and 20 equivalents of N,N-Diisopropylethylamine (DIEA) were added to the resin for 2 hours in dimethylformamide (DMF). Then, 2 equivalents of sphinganine and 2 equivalents of DIEA were added for overnight incubation in DMF anhydrous. The conjugation of D-erythro-Sphingosine (Matreya, LCC, USA) to the peptides (compound 5) was performed as described for compound 1. Addition of NBD-F, fluoride (4-fluoro-7-nitrobenzofurazan) (NBD) fluorescent probe (Biotium, USA) to the N- or C-terminus of selected peptides was performed in DMF for 1 hour. All peptides were cleaved from the resin by a TFA:DDW:TES (93.1:4.9:2 (v/v)) mixture, and purified by reverse-phase high-performance liquid chromatography (RP-HPLC) to >95% homogeneity. The molecular weight of the peptides was confirmed by platform LCA electrospray mass spectrometry. For hydrophobicity tests the peptides were eluted with a flow rate of 0.6 ml/min using a two-step linear gradient from CH3CN/H2O 20:80 v/v to CH3CN/H2O 95:5 v/v in 30 min and from CH3CN/H2O 95:5 v/v to CH3CN/H2O 95:5 in 10 min v/v on an analytical C2 column (7 μm particle size, pore size 100 Å) from Nucleosil.
Hydrophobicity (min): Hydrophobicity was analyzed by RP-HPLC. The retention time of each compound is presented.

[4] = fully infectious HIV-1 system (Table 2)
[5] = read-out: Virus-cell fusion IC50, TZM-bl cells infected with fully contagious HIV, mean±s.d., n=3
[6] = read-out: IC50 (nM), […], fully infectious HIV-1 system (Table 3)
[7] = fully infectious HIV-1 system (Table 3)

SMILES	IC50 [1, 4]	IC50 [1, 5]	Helicity (%) [2]	Hydrophobicity [3]	IC50 [1, 6]	IC90 [1, 7]	further results
CC[C@H](C)[C@H](NC(=O)CNC(=O)[C@H](Cc1c[nH]c2ccccc12)NC(=O)[C@@H](NC(=O)[C@@H](NC(=O)[C@H](CC(C)C)NC(=O)[C@H](CCC(N)=O)NC(=O)[C@H](CC(C)C)NC(=O)[C@H](CC(C)C)NC(=O)O[C@H]1CC[C@@]2(C)C(=CC[C@H]3[C@@H]4CC[C@H]([C@H](C)CCCC(C)C)[C@@]4(C)CC[C@@H]32)C1)[C@@H](C)O)C(C)C)C(=O)N[C@@H](CCCCN)C(=O)N[C@@H](CCC(N)=O)C(=O)N[C@@H](CC(C)C)C(=O)N[C@@H](CCC(N)=O)C(=O)N[C@@H](C)C(=O)N[C@@H](CCCNC(=N)N)C(=O)N[C@H](C(=O)N[C@@H](CC(C)C)C(N)=O)[C@@H](C)CC [Cholesterol-N17] (Cholesteryloxycarbonyl-LLQLTVWGIKQLQARIL-NH2)	> 4000 nM	> 4000 nM	<10%	28.9 min	–	–	–
CC[C@H](C)[C@H](NC(=O)CNC(=O)[C@H](Cc1c[nH]c2ccccc12)NC(=O)[C@@H](NC(=O)[C@@H](NC(=O)[C@H](CC(C)C)NC(=O)[C@H](CCC(N)=O)NC(=O)[C@H](CC(C)C)NC(=O)[C@H](CC(C)C)NC(=O)CCC(=O)Oc1c(C)c(C)c2c(c1C)CCC(C)(CCCC(C)CCCC(C)CCCC(C)C)O2)[C@@H](C)O)C(C)C)C(=O)N[C@@H](CCCCN)C(=O)N[C@@H](CCC(N)=O)C(=O)N[C@@H](CC(C)C)C(=O)N[C@@H](CCC(N)=O)C(=O)N[C@@H](C)C(=O)N[C@@H](CCCNC(=N)N)C(=O)N[C@H](C(=O)N[C@@H](CC(C)C)C(N)=O)[C@@H](C)CC (some centres unmarked) [Tocopherol-N17] (X1-LLQLTVWGIKQLQARIL-NH2)	> 4000 nM	> 4000 nM	<10%	28.9 min	–	–	–
CC[C@H](C)[C@H](NC(=O)CNC(=O)[C@H](Cc1c[nH]c2ccccc12)NC(=O)[C@@H](NC(=O)[C@@H](NC(=O)[C@H](CC(C)C)NC(=O)[C@H](CCC(N)=O)NC(=O)[C@H](CC(C)C)NC(=O)[C@@H](N)CC(C)C)[C@@H](C)O)C(C)C)C(=O)N[C@@H](CCCCN)C(=O)N[C@@H](CCC(N)=O)C(=O)N[C@@H](CC(C)C)C(=O)N[C@@H](CCC(N)=O)C(=O)N[C@@H](C)C(=O)N[C@@H](CCCNC(=N)N)C(=O)N[C@H](C(=O)N[C@@H](CC(C)C)C(N)=O)[C@@H](C)CC [N17, LLQLTVWGIKQLQARIL] (H-LLQLTVWGIKQLQARIL-NH2; C-terminus assumed)	> 4000 nM	> 4000 nM	20%	18.2 min	–	–	Inhibiting viral infectivity (in words) ([1]; up to 4 μM, the maximal concentration tested): not active
CCCCCCCCCCCCCCC[C@@H](O)[C@H](CO)NC(=O)N[C@@H](CC(C)C)C(=O)N[C@@H](CCC(=O)O)C(=O)N[C@@H](CCC(N)=O)C(=O)N[C@@H](CC(C)C)C(=O)N[C@@H](CO)C(=O)N[C@H](C(=O)N[C@@H](Cc1c[nH]c2ccccc12)C(=O)NCC(=O)N[C@@H](CO)C(=O)N[C@@H](CCCCN)C(=O)N[C@@H](CCC(N)=O)C(=O)N[C@@H](CC(N)=O)C(=O)N[C@@H](CCC(N)=O)C(=O)N[C@@H](C)C(=O)N[C@@H](CCCNC(=N)N)C(=O)N[C@@H](CCCNC(=N)N)C(=O)N[C@@H](CC(C)C)C(N)=O)C(C)C [Sphing-N17mut (a, d)] ({Sphinganine-CO}-LEQLSVWGSKQNQARRL-NH2)	> 4000 nM	–	–	–	–	–	–
CCCCCCCCCCCCCCC[C@@H](O)[C@H](CO)NC(=O)NCCCC[C@H](NC(=O)[C@H](CC(N)=O)NC(=O)[C@H](Cc1c[nH]c2ccccc12)NC(=O)[C@H](CCSC)NC(=O)[C@H](Cc1ccc(O)cc1)NC(=O)[C@H](CC(N)=O)NC(=O)[C@@H](NC(=O)[C@H](CC(=O)O)NC(=O)[C@H](CCC(=O)O)NC(=O)[C@H](CCCNC(=N)N)NC(=O)[C@H](Cc1c[nH]c2ccccc12)NC(=O)[C@@H](NC(=O)[C@H](CCC(=O)O)NC(=O)[C@@H](NC(=O)[C@@H](N)[C@@H](C)O)[C@@H](C)O)[C@@H](C)CC)[C@@H](C)O)C(N)=O [Scrambled-Sphing, TTEIWREDTNYMWNK-sphing] (H-TTEIWREDTNYMWNK([CO-Sphinganine])-NH2; N-terminus assumed)	–	–	–	–	895 ± 70 nM	6260 ± 3670 nM	–
CC[C@H](C)[C@H](NC(=O)CNC(=O)[C@H](Cc1c[nH]c2ccccc12)NC(=O)[C@@H](NC(=O)[C@@H](NC(=O)[C@H](CC(C)C)NC(=O)[C@H](CCC(N)=O)NC(=O)[C@H](CC(C)C)NC(=O)[C@@H](N)CC(C)C)[C@@H](C)O)C(C)C)C(=O)N[C@@H](CCCCN)C(=O)N[C@@H](CCC(N)=O)C(=O)N[C@@H](CC(C)C)C(=O)N[C@@H](CCC(N)=O)C(=O)N[C@@H](C)C(=O)N[C@@H](CCCNC(=N)N)C(=O)N[C@H](C(=O)N[C@@H](CC(C)C)C(=O)N[C@@H](CCCCN)C(N)=O)[C@@H](C)CC [N17K, LLQLTVWGIKQLQARILK] (H-LLQLTVWGIKQLQARILK-NH2; C-terminus assumed)	> 4000 nM	–	–	–	–	–	–
CCCCCCCCCCCCCCC[C@@H](O)[C@H](CO)NC(=O)NCCCC[C@H](NC(=O)[C@@H](NC(=O)[C@H](CCC(=O)O)NC(=O)[C@H](CCCNC(=N)N)NC(=O)[C@H](CC(=O)O)NC(=O)[C@H](Cc1c[nH]c2ccccc12)NC(=O)[C@H](CCC(=O)O)NC(=O)[C@H](CCSC)NC(=O)[C@H](Cc1c[nH]c2ccccc12)NC(=O)[C@@H](N)[C@@H](C)O)[C@@H](C)CC)C(N)=O [Truncated-Sphing, TWMEWDREIK-Sphinganine] (H-TWMEWDREIK([CO-Sphinganine])-NH2; N-terminus assumed)	–	–	–	–	1330 ± 270 nM	2480 ± 320 nM	–
CCCCCCCCCCCCCCC[C@@H](O)[C@H](CO)NC(=O)NCCCC[C@H](NC(=O)[C@@H](NC(=O)[C@H](Cc1ccc(O)cc1)NC(=O)[C@H](CC(N)=O)NC(=O)[C@H](CC(N)=O)NC(=O)[C@@H](NC(=O)[C@H](CCC(=O)O)NC(=O)[C@H](CCCNC(=N)N)NC(=O)[C@H](CC(=O)O)NC(=O)[C@H](Cc1c[nH]c2ccccc12)NC(=O)[C@H](CCC(=O)O)NC(=O)[C@H](CCSC)NC(=O)[C@H](Cc1c[nH]c2ccccc12)NC(=O)[C@@H](NC(=O)[C@@H](N)[C@@H](C)O)[C@@H](C)O)[C@@H](C)CC)[C@@H](C)O)C(N)=O [PBDK-Sphing, TTWMEWDREINNYTK-Sphinganine] (H-TTWMEWDREINNYTK([CO-Sphinganine])-NH2; N-terminus assumed)	–	–	–	–	467 ± 140 nM	1090 ± 100 nM	–
CCCCCCCCCCCCCCC[C@@H](O)[C@H](CO)NC(=O)N[C@@H](CCC(N)=O)C(=O)N[C@@H](CCCCN)C(=O)N[C@H](C(=O)N[C@@H](C)C(=O)N[C@@H](CCCNC(=N)N)C(=O)N[C@@H](CC(C)C)C(=O)N[C@@H](CCC(N)=O)C(=O)N[C@H](C(=O)N[C@@H](CC(C)C)C(=O)N[C@@H](Cc1c[nH]c2ccccc12)C(=O)N[C@@H](CC(C)C)C(=O)N[C@@H](CCC(N)=O)C(=O)N[C@H](C(=O)NCC(=O)N[C@H](C(=O)N[C@@H](CC(C)C)C(=O)N[C@@H](CC(C)C)C(N)=O)C(C)C)[C@@H](C)CC)[C@@H](C)O)[C@@H](C)CC [Sphing-N17 scrambled] ({Sphinganine-CO}-QKIARLQTLWLQIGVLL-NH2)	> 4000 nM	–	–	–	–	–	–
CC(C)C[C@H](NC(=O)[C@H](CCCNC(=N)N)NC(=O)[C@H](CCCNC(=N)N)NC(=O)[C@H](C)NC(=O)[C@H](CCC(N)=O)NC(=O)[C@H](CC(N)=O)NC(=O)[C@H](CCC(N)=O)NC(=O)[C@H](CCCCN)NC(=O)[C@H](CO)NC(=O)CNC(=O)[C@H](Cc1c[nH]c2ccccc12)NC(=O)[C@@H](NC(=O)[C@H](CO)NC(=O)[C@H](CC(C)C)NC(=O)[C@H](CCC(N)=O)NC(=O)[C@H](CCC(=O)O)NC(=O)[C@@H](N)CC(C)C)C(C)C)C(N)=O [N17mut (a, d), LEQLSVWGSKQNQARRL] (H-LEQLSVWGSKQNQARRL-NH2; C-terminus assumed)	> 4000 nM	–	–	–	–	–	–
